{"source": "ChEMBL document CHEMBL1141074", "about": "“Pharmacophore-guided drug discovery investigations leading to bioactive 5-aminotetrahydropyrazolopyridines. Implications for the binding mode of heterocyclic dopamine D3 receptor agonists” (J Med Chem, 2005)", "key": {"D(3) dopamine receptor [1]": {"target": "T1, D(3) dopamine receptor (Homo sapiens, UniProt P35462)", "T1 sequence (P35462 whole entry)": "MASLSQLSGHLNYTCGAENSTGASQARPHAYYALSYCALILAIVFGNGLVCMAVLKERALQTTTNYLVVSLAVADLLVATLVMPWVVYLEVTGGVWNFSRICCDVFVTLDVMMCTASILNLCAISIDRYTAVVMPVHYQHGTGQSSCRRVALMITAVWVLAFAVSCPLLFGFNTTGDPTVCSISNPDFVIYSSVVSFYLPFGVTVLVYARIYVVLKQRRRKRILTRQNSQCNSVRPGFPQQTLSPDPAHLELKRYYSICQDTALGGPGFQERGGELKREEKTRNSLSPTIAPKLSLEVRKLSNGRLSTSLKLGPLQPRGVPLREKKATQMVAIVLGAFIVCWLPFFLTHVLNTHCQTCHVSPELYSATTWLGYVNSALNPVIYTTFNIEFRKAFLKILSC", "assay": "Binding affinity towards human dopamine receptor 3 expressed in Chinese hamster ovary cells using [3H]spiperone (0.5 nM) as radioligand", "assay_type": "cell-based"}, "D(1A) dopamine receptor [2]": {"target": "T2, D(1A) dopamine receptor (Sus scrofa, UniProt P50130)", "T2 sequence (P50130 whole entry)": "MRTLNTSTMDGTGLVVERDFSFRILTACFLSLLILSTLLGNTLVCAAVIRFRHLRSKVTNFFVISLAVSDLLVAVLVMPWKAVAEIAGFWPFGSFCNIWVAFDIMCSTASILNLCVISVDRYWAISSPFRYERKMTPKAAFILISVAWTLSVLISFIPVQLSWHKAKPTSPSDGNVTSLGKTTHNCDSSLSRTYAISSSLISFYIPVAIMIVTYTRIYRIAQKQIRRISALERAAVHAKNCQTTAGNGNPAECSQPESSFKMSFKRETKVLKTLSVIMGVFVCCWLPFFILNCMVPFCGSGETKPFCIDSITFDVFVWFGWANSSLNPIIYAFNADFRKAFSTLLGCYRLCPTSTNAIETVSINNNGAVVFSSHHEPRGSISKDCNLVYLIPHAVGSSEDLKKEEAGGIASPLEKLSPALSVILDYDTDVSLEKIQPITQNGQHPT", "assay": "Binding affinity towards porcine dopamine receptor 1 against radioligand [3H]-SCH- 23390"}, "D(4) dopamine receptor [3]": {"target": "T3, D(4) dopamine receptor (Homo sapiens, UniProt P21917)", "T3 sequence (P21917 whole entry)": "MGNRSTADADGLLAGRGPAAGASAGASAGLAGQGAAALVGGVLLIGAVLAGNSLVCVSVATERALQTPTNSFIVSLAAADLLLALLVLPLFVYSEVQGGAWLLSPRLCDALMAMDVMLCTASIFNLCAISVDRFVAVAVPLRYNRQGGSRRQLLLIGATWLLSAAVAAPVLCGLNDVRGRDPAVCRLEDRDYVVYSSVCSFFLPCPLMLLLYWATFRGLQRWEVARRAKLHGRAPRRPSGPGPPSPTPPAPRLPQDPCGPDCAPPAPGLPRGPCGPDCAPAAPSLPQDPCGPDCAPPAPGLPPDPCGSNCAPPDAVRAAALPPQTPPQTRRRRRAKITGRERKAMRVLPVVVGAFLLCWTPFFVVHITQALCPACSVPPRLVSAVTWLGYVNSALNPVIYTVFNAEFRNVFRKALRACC", "assay": "Binding affinity towards human dopamine receptor 4.4 expressed in Chinese hamster ovary cells using [3H]spiperone (0.5 nM) as radioligand", "assay_type": "cell-based"}, "D(2) dopamine receptor [4]": {"target": "T4, D(2) dopamine receptor (Homo sapiens, UniProt P14416)", "T4 sequence (P14416 whole entry)": "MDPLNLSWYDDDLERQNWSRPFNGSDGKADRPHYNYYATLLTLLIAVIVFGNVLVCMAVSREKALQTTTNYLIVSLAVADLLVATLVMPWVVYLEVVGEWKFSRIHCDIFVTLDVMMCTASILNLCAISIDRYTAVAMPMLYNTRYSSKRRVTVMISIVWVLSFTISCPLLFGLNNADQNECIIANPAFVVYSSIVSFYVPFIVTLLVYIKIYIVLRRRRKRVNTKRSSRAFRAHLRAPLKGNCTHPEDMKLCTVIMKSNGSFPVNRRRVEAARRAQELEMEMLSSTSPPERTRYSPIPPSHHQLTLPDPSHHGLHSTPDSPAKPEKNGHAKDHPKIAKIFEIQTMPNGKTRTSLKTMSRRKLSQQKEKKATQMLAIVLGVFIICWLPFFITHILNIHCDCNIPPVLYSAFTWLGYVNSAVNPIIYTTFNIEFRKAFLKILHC", "assay": "Binding affinity towards human dopamine receptor 2 (short) expressed in Chinese hamster ovary cells using [3H]spiperone (0.5 nM) as radioligand", "assay_type": "cell-based"}, "D(2) dopamine receptor [5]": {"target": "T4, D(2) dopamine receptor", "assay": "Binding affinity towards human dopamine receptor 2 (long) expressed in Chinese hamster ovary cells using [3H]spiperone (0.5 nM) as radioligand", "assay_type": "cell-based"}, "D(1A) dopamine receptor [6]": {"target": "T2, D(1A) dopamine receptor", "assay": "Binding affinity (low) towards porcine dopamine receptor 1 by using [3H]-SCH- 23390 (0.3 nM) as radioligand"}, "D(3) dopamine receptor [7]": {"target": "T1, D(3) dopamine receptor", "assay": "biochemical"}, "D(4) dopamine receptor [8]": {"target": "T3, D(4) dopamine receptor", "assay": "biochemical", "assay_type": "cell-based, ovary"}, "D(4) dopamine receptor [9]": {"target": "T3, D(4) dopamine receptor", "assay": "biochemical", "assay_type": "cell-based, ovary", "remark": "listed apart in the source"}, "D(3) dopamine receptor [10]": {"target": "T1, D(3) dopamine receptor", "assay": "biochemical", "remark": "listed apart in the source"}, "D(2) dopamine receptor [11]": {"target": "T4, D(2) dopamine receptor", "assay": "biochemical", "assay_type": "cell-based, ovary"}, "D(2) dopamine receptor [12]": {"target": "T4, D(2) dopamine receptor", "assay": "High binding affinity towards human dopamine receptor 2 (long) expressed in Chinese hamster ovary cells using [3H]spiperone (0.5 nM) as radioligand", "assay_type": "cell-based"}, "D(2) dopamine receptor [13]": {"target": "T4, D(2) dopamine receptor", "assay": "Low binding affinity towards human dopamine receptor 2 (long) expressed in Chinese hamster ovary cells using [3H]spiperone (0.5 nM) as radioligand", "assay_type": "cell-based"}, "D(2) dopamine receptor [14]": {"target": "T4, D(2) dopamine receptor", "assay": "Low binding affinity towards human dopamine receptor 2 (short) expressed in Chinese hamster ovary cells using [3H]spiperone (0.5 nM) as radioligand", "assay_type": "cell-based"}, "D(3) dopamine receptor [15]": {"target": "T1, D(3) dopamine receptor", "assay": "Effective concentration against dopamine D3 receptor"}, "D(3) dopamine receptor [16]": {"target": "T1, D(3) dopamine receptor", "assay": "Binding affinity towards dopamine D3 receptor"}, "D(1A) dopamine receptor [17]": {"target": "T2, D(1A) dopamine receptor", "assay": "Binding affinity (low) towards porcine dopamine receptor 1 against radioligand [3H]-SCH- 23390"}}, "data": [{"smiles": "CCCN(CCC)C1CCn2ncc(C(=O)OC)c2C1", "note": "(stereo not given)", "values": [{"measurement": "Ki", "setting": "D(3) dopamine receptor [1]", "result": 17, "unit": "µM"}, {"measurement": "Ki", "setting": "D(1A) dopamine receptor [2]", "result": "> 20", "unit": "µM"}, {"measurement": "Ki", "setting": "D(4) dopamine receptor [3]", "result": "> 20", "unit": "µM"}, {"measurement": "Ki", "setting": "D(2) dopamine receptor [4]", "result": "> 20", "unit": "µM"}, {"measurement": "Ki", "setting": "D(2) dopamine receptor [5]", "result": "> 20", "unit": "µM"}]}, {"smiles": "CCCN(CCC)C1CCn2ncc(CO)c2C1", "note": "(stereo not given)", "values": [{"measurement": "Ki", "setting": "D(3) dopamine receptor [1]", "result": 4, "unit": "µM"}, {"measurement": "Ki", "setting": "D(1A) dopamine receptor [2]", "result": "> 20", "unit": "µM"}, {"measurement": "Ki", "setting": "D(4) dopamine receptor [3]", "result": 16, "unit": "µM"}, {"measurement": "Ki", "setting": "D(2) dopamine receptor [4]", "result": "> 20", "unit": "µM"}, {"measurement": "Ki", "setting": "D(2) dopamine receptor [5]", "result": "> 20", "unit": "µM"}]}, {"smiles": "CCCN(CCC)C1CCn2ncc(Cl)c2C1", "note": "(stereo not given)", "values": [{"measurement": "Ki", "setting": "D(1A) dopamine receptor [6]", "result": "> 20", "unit": "µM"}, {"measurement": "Ki", "setting": "D(3) dopamine receptor [7]", "result": 0.23, "unit": "µM"}, {"measurement": "Ki", "setting": "D(4) dopamine receptor [8]", "result": 6.4, "unit": "µM"}, {"measurement": "Ki", "setting": "D(4) dopamine receptor [9]", "result": 0.2, "unit": "µM"}, {"measurement": "Ki", "setting": "D(3) dopamine receptor [10]", "result": 0.0061, "unit": "µM"}, {"measurement": "Ki", "setting": "D(2) dopamine receptor [11]", "result": 0.21, "unit": "µM"}, {"measurement": "Ki", "setting": "D(2) dopamine receptor [12]", "result": 0.12, "unit": "µM"}, {"measurement": "Ki", "setting": "D(2) dopamine receptor [13]", "result": "> 20", "unit": "µM"}, {"measurement": "Ki", "setting": "D(2) dopamine receptor [14]", "result": 12, "unit": "µM"}, {"measurement": "EC50", "setting": "D(3) dopamine receptor [15]", "result": 0.0045, "unit": "µM"}]}, {"smiles": "CCCN(CCC)C1CCn2ncc(C=O)c2C1", "note": "(stereo not given)", "values": [{"measurement": "Ki", "setting": "D(3) dopamine receptor [1]", "result": 12, "unit": "µM"}, {"measurement": "Ki", "setting": "D(1A) dopamine receptor [2]", "result": "> 20", "unit": "µM"}, {"measurement": "Ki", "setting": "D(4) dopamine receptor [3]", "result": 14, "unit": "µM"}, {"measurement": "Ki", "setting": "D(2) dopamine receptor [4]", "result": 4, "unit": "µM"}, {"measurement": "Ki", "setting": "D(2) dopamine receptor [5]", "result": 5.9, "unit": "µM"}]}, {"smiles": "CCCNC1CCn2ncc(C(=O)OC)c2C1", "note": "(stereo not given)", "values": [{"measurement": "Ki", "setting": "D(3) dopamine receptor [1]", "result": 12, "unit": "µM"}, {"measurement": "Ki", "setting": "D(1A) dopamine receptor [2]", "result": "> 20", "unit": "µM"}, {"measurement": "Ki", "setting": "D(4) dopamine receptor [3]", "result": 90, "unit": "µM"}, {"measurement": "Ki", "setting": "D(2) dopamine receptor [4]", "result": "> 100", "unit": "µM"}, {"measurement": "Ki", "setting": "D(2) dopamine receptor [5]", "result": "> 100", "unit": "µM"}]}, {"smiles": "CCCN(CCC)[C@@H]1CCn2nccc2C1", "values": [{"measurement": "Ki", "setting": "D(3) dopamine receptor [1]", "result": 2.7, "unit": "µM"}, {"measurement": "Ki", "setting": "D(1A) dopamine receptor [2]", "result": "> 20", "unit": "µM"}, {"measurement": "Ki", "setting": "D(4) dopamine receptor [3]", "result": 13, "unit": "µM"}, {"measurement": "Ki", "setting": "D(2) dopamine receptor [4]", "result": "> 20", "unit": "µM"}, {"measurement": "Ki", "setting": "D(2) dopamine receptor [5]", "result": "> 20", "unit": "µM"}]}, {"smiles": "CCCN(CCC)[C@H]1CCn2nccc2C1", "values": [{"measurement": "pKi", "setting": "D(3) dopamine receptor [16]", "result": 8.4}, {"measurement": "Ki", "setting": "D(1A) dopamine receptor [6]", "result": "> 20", "unit": "µM"}, {"measurement": "Ki", "setting": "D(3) dopamine receptor [7]", "result": 0.11, "unit": "µM"}, {"measurement": "Ki", "setting": "D(4) dopamine receptor [8]", "result": 1.7, "unit": "µM"}, {"measurement": "Ki", "setting": "D(4) dopamine receptor [9]", "result": 0.058, "unit": "µM"}, {"measurement": "Ki", "setting": "D(3) dopamine receptor [10]", "result": 0.004, "unit": "µM"}, {"measurement": "Ki", "setting": "D(2) dopamine receptor [11]", "result": 0.25, "unit": "µM"}, {"measurement": "Ki", "setting": "D(2) dopamine receptor [12]", "result": 0.18, "unit": "µM"}, {"measurement": "Ki", "setting": "D(2) dopamine receptor [13]", "result": 15, "unit": "µM"}, {"measurement": "Ki", "setting": "D(2) dopamine receptor [14]", "result": 10, "unit": "µM"}, {"measurement": "EC50", "setting": "D(3) dopamine receptor [15]", "result": 0.0034, "unit": "µM"}]}, {"smiles": "CCCN(CCC)C1CCn2nccc2C1", "note": "(racemic)", "values": [{"measurement": "Ki", "setting": "D(3) dopamine receptor [7]", "result": 0.2, "unit": "µM"}, {"measurement": "Ki", "setting": "D(1A) dopamine receptor [17]", "result": "> 20", "unit": "µM"}, {"measurement": "Ki", "setting": "D(4) dopamine receptor [8]", "result": 1.6, "unit": "µM"}, {"measurement": "Ki", "setting": "D(4) dopamine receptor [9]", "result": 0.058, "unit": "µM"}, {"measurement": "Ki", "setting": "D(3) dopamine receptor [10]", "result": 0.0067, "unit": "µM"}, {"measurement": "Ki", "setting": "D(2) dopamine receptor [11]", "result": 0.16, "unit": "µM"}, {"measurement": "Ki", "setting": "D(2) dopamine receptor [12]", "result": 0.22, "unit": "µM"}, {"measurement": "Ki", "setting": "D(2) dopamine receptor [13]", "result": 18, "unit": "µM"}, {"measurement": "Ki", "setting": "D(2) dopamine receptor [14]", "result": 8.5, "unit": "µM"}]}]}
